Data as given in a melting point compilation (Tetko et al.; mined from patent text by program, amines drawn as free bases though some values may be those of a salt).

SMILES	melting point
O=C(O)COc1cc(-c2c3ccccc3c(Br)c3sc4ccccc4c23)ccc1Br	174 to 175 °C
COc1cc2c(cc1OC)-c1n[nH]c(Nc3cc(Cl)cc(Cl)c3)c1C2	> 270 °C
CC(O)CNc1ccnc2cc(Cl)ccc12 (centres undefined)	168 to 170 °C
Cc1c(C(Cl)=Cc2ccc(C(F)(F)F)cc2)ccc2nc(N)nc(N)c12	> 300 °C
CCC(C(=O)N(C)C)n1cc(C)c(-c2ccccc2OC)n1 (centres undefined)	79 to 81 °C
CN1CCN(c2ncnc3oc(-c4ccc(N)cc4)c(-c4ccc(F)cc4)c23)CC1	214 to 215 °C
CCOc1cc(CN2CCN(c3ccc(C(=O)NC)cc3C)CC2)cc2c1OC(C)C(=O)N2 (centres undefined)	173 to 180 °C
C=CC1C2OCC(O2)C(OCc2ccccc2)C1O (centres undefined)	88 to 91 °C
C[C@H](NC1=NC=NC(N)(Cl)N1)c1ccccc1 (some centres undefined)	163 to 164 °C
Cc1c(-c2ccccc2)c(=O)[nH]c2ccccc12	266 to 268 °C
CC(C)(C)OC(=O)CCNC(=O)c1ccc2c(Cl)cnc(Cl)c2c1	131 to 133 °C
O=C(O)CC(=O)Nc1c(-c2ccccc2)c(=O)[nH]c2cc(Cl)ccc12	260 °C
Cn1ccc(-c2nnc(Cc3ccc(F)cc3)o2)c(O)c1=O	216 to 218 °C
COc1ccc(CS(=O)(=O)/C(=C/c2c(OC)cc(OC)cc2OC)C(=O)c2ccc(OC)cc2)cc1	60 to 62 °C
CCOC(=O)C(=NOC)C1=CSCCS1	65 to 67 °C
O=C(O)CSc1cccc(CNC(=O)C2Cc3ccccc3N2S(=O)(=O)c2ccc(-c3cccc(C(F)(F)F)c3)cc2)c1 (centres undefined)	75 °C
CCNS(=O)(=O)c1cccc(NC(=O)c2cnn3c(C(F)F)cc(-c4ccc(C(F)(F)F)cc4)nc23)c1	259 °C
CS(=O)(=O)c1ccc(-c2cnn(-c3ccccc3F)c(=O)c2-c2ccc(F)cc2)cc1	96 to 103 °C
O=c1oc2ccccc2c(O)c1C1CC(c2ccc(Cc3ccc(-c4ccccc4)cc3)cc2)Cc2ccccc21 (centres undefined)	118 to 121 °C
Cc1cccc(NC(=O)NC2CN(C(=O)C(C)(C)C)c3ccc(C)cc3N(CC(=O)c3ccccc3C)C2=O)c1 (centres undefined)	218 to 220 °C
Cc1ccc2c(N)c3c(nc2c1)CCSC3	239 to 245 °C
CC(C)(C)c1csc(-c2cc3cc(O)ccc3o2)n1	179 to 180 °C
CCCCCCOc1cc(N(CC)CC)ccc1C1(c2c(C)n(CC)c3ccccc23)OC(=O)c2cccnc21 (centres undefined)	154 to 156 °C
S=C(NCCc1ccccc1Cl)Nc1ccccn1	116 to 122 °C
COc1ccc(C2=NN(c3ccc(C(=O)O)cc3)C(=O)C(C)(C)C2)cc1OC	196 to 198 °C

SMILES	melting point
CC1CCC2(C)C(=CCC3C2CCC2(C)C3CCC23OCCO3)C1 (centres undefined)	121 to 122 °C
O=c1[nH]c(CCCn2ccnc2)nc2ccc(Cl)cc12	192 to 194 °C
O=C(O)c1cn(C2CN(C(c3ccccc3)c3ccccc3)C2)c2cc(F)c(F)cc2c1=O	245 to 247 °C
c1ccc(Cn2ccnc2CC2COc3ccccc3O2)cc1 (centres undefined)	105 to 107 °C
c1cc(-c2ccnc3nccn23)ccn1	244 to 245 °C
c1ccc(-c2ccc3cnc(NCc4cccnc4)nn23)cc1	201 to 203 °C
CCCCc1nn(-c2ccccc2C(F)(F)F)c(=O)n1Cc1ccc(-c2ccccc2S(=O)(=O)NS(=O)(=O)C(F)(F)F)cc1	132 to 134 °C
Cc1cccc(-c2c[nH]c(=O)c(C#N)c2)c1	254 to 260 °C
CSC(CC(=O)O)c1ccccc1 (centres undefined)	75 to 77 °C
COc1ccc2cc3c(Cl)nn(CCN(C)C)c3nc2c1	86 to 88 °C
CCn1cc(C(=O)NCc2ccc(Cl)cc2)c(=O)c2cc(I)sc21	214 to 218 °C
COc1cc2c(cc1OC)-c1c(C(N)=O)c(-c3cc(C)c(O)c(C)c3)c(C)n1CC2	229 to 231 °C
CCCn1nc2c(N)nc3ccccc3c2c1NCCC1CCN(C(C)=O)CC1	203 to 206 °C
COc1ccc(NC(=O)c2ccc(Cl)c(Cl)c2)cc1NCc1cccc(F)c1	197 to 199 °C
O=C(Nc1ccccn1)C1=C(O)c2sc3ccccc3c2S(=O)(=O)N1	240 to 242 °C
COc1cccc2c1CC(CC(=O)O)C1(C2)OCCO1 (centres undefined)	129 to 130 °C
Cc1ccc(S(=O)(=O)N2C[C@@H]3C[C@H]2CN3C)cc1	87 to 88 °C
CCCN1CCn2c(=O)[nH]c3cccc(c32)C1C (centres undefined)	124 °C
O=C(OCc1ccccc1)[C@H](O)CCc1ccccc1	59 to 60 °C
Cc1ccc(C2c3c(C)cc(C)c(C)c3OC2(C)C)cc1 (centres undefined)	117 to 118 °C
O=C1c2ccccc2C(=O)N1Cc1ccc(I)cc1Cl	140 to 142 °C
S=C(NC(=S)c1c(Cl)cccc1Cl)Nc1ccc(Cl)c(Cl)c1	168 to 170 °C
C=CCN(CC=C)c1nc(NC(=O)Cc2ccsc2)n2oc(=O)nc2n1	159 to 161 °C
COc1ccncc1Nc1nc(N2CCOCC2)nc(-n2c(C(F)F)nc3c(OC)cccc32)n1	239 to 241 °C
O=C1CCC(N2Cc3c(OCc4ccc(CN5CCCC5C(F)(F)F)cc4)cccc3C2=O)C(=O)N1 (centres undefined)	178 to 180 °C

SMILES	melting point
C[C@@H](NC(=O)c1noc(-c2ccc(Cl)cc2)n1)[C@](O)(Cn1cncn1)c1ccc(F)cc1F	79 to 83 °C
O=[N+]([O-])C1=C2N(Cc3ccc(Cl)nc3)CCN2C2CCC1O2 (centres undefined)	149 to 150 °C
Cc1cc(-c2cc(CO)c(=O)n(Cc3ccccc3Cl)n2)ccc1F	149 to 150 °C
CCCCCCNC(=O)Oc1ccc2c(c1)N(Cc1ccccc1)CCC2	85 °C
O=c1c2ccc(Cl)cc2n(Cc2ccccc2)n2c(Br)ccc12	148 to 149 °C
CC(C)Oc1cc(F)nc(N)n1	66 to 68 °C
CCCc1c(OCCCS(=O)(=O)c2ccc(C(=O)NCC(=O)OCC)cc2)ccc(C(C)=O)c1O	138 to 140 °C
CN1CCN(c2nc3ccccc3[nH]2)CC1	222 to 224 °C
CCCn1ccnc1C(=O)Cc1ccc([N+](=O)[O-])cc1	95 to 96 °C
CCCCC1OC(=O)c2cc(NC3CCCCC3)ccc21 (centres undefined)	123 to 124 °C
O=C(NN1CCCCC1)NS(=O)(=O)c1ccc(CCN2C(=O)c3ccccc3C2(O)c2ccccc2)cc1 (centres undefined)	228 °C
CCOC(=O)c1cc2c3n(ccc-2n1)CC(CO)=N3	227 to 229 °C
CCCCCN(CCC12CC3CC(CC(C3)C1)C2)C(=O)NCC(Cc1ccccc1)Cc1ccncc1 (centres undefined)	111 to 116 °C
NC(=O)c1ccc(Cc2ccccc2)cn1	193 to 196 °C
CCOC(=O)c1ccc2c(c1)N(CCN(C)C)C(=O)c1cc(C(C)C)cc(C(C)C)c1O2	97 to 98 °C
CCCC(=O)c1cnc2c(OCCOCCO)cccc2c1Nc1ccccc1C	144 to 146 °C
C[C@H]1NC(C)(C)CO[C@]1(O)c1cccc(Cl)c1	128 to 131 °C
CC(C)(C)c1cc(C2NNC(=S)N2N)cc(C(C)(C)C)c1O (centres undefined)	260 to 270 °C
CCOC(=O)c1ccc(OCC)c(-c2ncc(C(=O)OCC)c(=O)[nH]2)c1	180 to 182 °C
O=c1c2cc([N+](=O)[O-])ccc2nc2n1CS(=O)(=O)N2	> 300 °C
CCc1cc(Br)cc2nc3c(=O)[nH][nH]c(=O)c3c(O)c12	208 to 210 °C
CCc1cccc(C)c1CNc1cc(C(=O)N(C)C)cc2c1nc(COC)n2C	154 °C
CN(c1cccc2cc(-c3nc(CCl)cs3)[nH]c12)S(=O)(=O)c1cccs1	153 to 154 °C
O=C(NCCCC(F)(F)F)Oc1ccc([N+](=O)[O-])cc1	118 to 120 °C
CCc1cn(C2CC(O)C(CCC(O)C(C)Oc3ccc(Cl)cc3Cl)O2)c(=O)[nH]c1=O (mixture of isomers)	108 to 111 °C

SMILES	melting point
CCOC(=O)C(Cc1nc2cc(Cl)c(Cl)cc2nc1CP(=O)(OC)OC)(NC(C)=O)C(=O)OCC	130 to 132 °C
CCCCc1nc2c(N)nc3cccnc3c2n1CCNC(=O)C1CCCCC1	188 to 190 °C
OCCSc1ccc2cc(SCCO)ccc2c1	113 to 117 °C
Nc1cc(C(=O)NC2CC2)n[nH]1	> 246 °C
Nc1nc(Nc2ccccc2)sc1C(=O)c1ccsc1	171 to 172 °C
[N-]=[N+]=N[C@H](C(=O)O)C12CC3CC(CC(C3)C1)C2	110 to 112 °C
CC(C)C1C(=O)NC(c2ccc(NC(=O)CCl)cc2)c2ccccc21 (centres undefined)	269 to 270 °C
NC(=O)C1(Nc2ccccc2)CCN(C2CCCc3ccccc32)CC1 (centres undefined)	186 to 187 °C
COc1ccc(C(=O)c2cccc([N+](=O)[O-])c2)cc1OC	133 to 135 °C
CCCCOCCOc1ccc(-c2ccc(N3CCC4(C3)OCCO4)c(C=C(C)C(=O)O)c2)cc1	130 to 132 °C
N#Cc1ccc(OCc2ccccc2)c(O)c1	101 °C
O=C(O)COc1cc(Cl)ccc1C(=O)NCc1ccc2c(c1)OCO2	208 to 209 °C
CC(C)C[C@H](NC(=O)[C@H](Cc1c[nH]cn1)NC(=O)[C@H](Cc1cccc2ccccc12)NC(=O)OCc1ccccc1)[C@@H](O)CC=O	166 to 168 °C
CNS(=O)(=O)c1cn(C)c2cc(C(F)(F)F)ccc2c1=O	218 to 219 °C
COC(=O)C1=C(O)c2sc3ccccc3c2S(=O)(=O)N1	240 to 242 °C
Cc1ccc(-c2nc3ccccc3[nH]2)cn1	266 °C
CCn1c(C#N)ccc1-c1ccc2c(c1)C(C)(C)OC(=O)N2	200 to 202 °C
O=c1c(O)c(C#Cc2ccccc2)oc2ccccc12	153 to 154 °C
O=Cc1ccc(-c2ccc3ncnc(Nc4ccc(OCc5cccc(F)c5)c(Cl)c4)c3c2)cc1	237 to 238 °C
CCCCCCc1cnc(-c2ccc(C#N)cc2)nc1	53.5 to 54.5 °C
COc1cc2c(cc1OC)N(C(=O)c1ccc(-c3ccccc3C(F)(F)F)c(C)c1)Cc1ccc(C(=O)N(C)CC(O)CO)n1C2 (centres undefined)	184 to 186 °C
O=c1c(Cl)c2sc3ccccc3nc-2c2ccccc12	230 to 231 °C
CC(=O)Nc1nc(=O)n(C(=O)c2ccc(C)cc2)cc1F	147 to 148 °C
COc1ccc(N2C(=O)C3=C(SCCO3)C2O)nn1 (centres undefined)	165 °C
